According to PubChem BioAssay (NCI):
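In this assay, cells in 96-well plates receive the compound at five concentrations for 48 hours. Endpoints are linearly interpolated between the surrounding concentrations. GI50: concentration for 50% inhibition of growth. TGI: total growth inhibition.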

How the values were obtained:
Test in all cases: NCI tumour cell line growth inhibition, 48 h
EKVX NSCLC = tested on: EKVX NSCLC
SF-295 CNS = tested on: SF-295 CNS
K-562 leukemia = tested on: K-562 leukemia
NCI-H226 lung = tested on: NCI-H226 lung
NCI-H522 lung = tested on: NCI-H522 lung
MALME-3M melanoma = tested on: MALME-3M melanoma
T-47D breast = tested on: T-47D breast
U251 CNS = tested on: U251 CNS
SK-MEL-5 melanoma = tested on: SK-MEL-5 melanoma
SK-MEL-2 melanoma = tested on: SK-MEL-2 melanoma
PC-3 prostate = tested on: PC-3 prostate
OVCAR-4 ovarian = tested on: OVCAR-4 ovarian
COLO 205 colon = tested on: COLO 205 colon
786-0 renal = tested on: 786-0 renal
SNB-75 CNS = tested on: SNB-75 CNS
HOP-62 NSCLC = tested on: HOP-62 NSCLC
HT29 colon = tested on: HT29 colon
SF-539 CNS = tested on: SF-539 CNS
MDA-MB-231 breast = tested on: MDA-MB-231 breast
OVCAR-8 ovarian = tested on: OVCAR-8 ovarian
HOP-92 NSCLC = tested on: HOP-92 NSCLC
CAKI-1 renal = tested on: CAKI-1 renal
OVCAR-3 ovarian = tested on: OVCAR-3 ovarian
SR leukemia = tested on: SR leukemia
HCT-116 colon = tested on: HCT-116 colon
MDA-MB-435 = tested on: MDA-MB-435
MOLT-4 leukemia = tested on: MOLT-4 leukemia
HCC-2998 colon = tested on: HCC-2998 colon
CCRF-CEM leukemia = tested on: CCRF-CEM leukemia
OVCAR-5 ovarian = tested on: OVCAR-5 ovarian
A549 NSCLC = tested on: A549 NSCLC
HCT-15 colon = tested on: HCT-15 colon
NCI/ADR-RES ovarian = tested on: NCI/ADR-RES ovarian
RPMI-8226 leukemia = tested on: RPMI-8226 leukemia
M14 melanoma = tested on: M14 melanoma
NCI-H460 lung = tested on: NCI-H460 lung
SN12C renal = tested on: SN12C renal
ACHN renal = tested on: ACHN renal
IGROV1 ovarian = tested on: IGROV1 ovarian
SNB-19 CNS = tested on: SNB-19 CNS
KM12 colon = tested on: KM12 colon
HL-60(TB) leukemia = tested on: HL-60(TB) leukemia
NCI-H23 lung = tested on: NCI-H23 lung
SW-620 colon = tested on: SW-620 colon
UO-31 renal = tested on: UO-31 renal
RXF 393 renal = tested on: RXF 393 renal
TK-10 renal = tested on: TK-10 renal
BT-549 breast = tested on: BT-549 breast
UACC-62 melanoma = tested on: UACC-62 melanoma
MCF7 breast = tested on: MCF7 breast
UACC-257 melanoma = tested on: UACC-257 melanoma
SK-OV-3 ovarian = tested on: SK-OV-3 ovarian
HS 578T breast = tested on: HS 578T breast
DU-145 prostate = tested on: DU-145 prostate
SF-268 CNS = tested on: SF-268 CNS
LOX IMVI melanoma = tested on: LOX IMVI melanoma

CC[C@H](NC(=O)[C@H]1CCCCN1C)C(=O)N(C)[C@H](C[C@@H](OC(C)=O)c1nc(C(=O)N[C@@H](Cc2ccccc2)C[C@H](C)C(=O)O)cs1)C(C)C
GI50 (EKVX NSCLC): 0.01 µM | TGI (EKVX NSCLC): > 14.3 µM | GI50 (SF-295 CNS): 0.00456 µM | TGI (SF-295 CNS): > 6.44 µM | GI50 (K-562 leukemia): 0.00209 µM | TGI (K-562 leukemia): > 14.3 µM | TGI (NCI-H226 lung): > 7.57 µM | GI50 (NCI-H522 lung): 0.00284 µM | TGI (NCI-H522 lung): 0.337 µM | GI50 (MALME-3M melanoma): 0.00538 µM | TGI (MALME-3M melanoma): > 14.3 µM | GI50 (T-47D breast): 0.0058 µM | TGI (T-47D breast): > 14.3 µM | GI50 (U251 CNS): 0.0047 µM | TGI (U251 CNS): > 14.3 µM | GI50 (SK-MEL-5 melanoma): < 0.00143 µM | TGI (SK-MEL-5 melanoma): 0.101 µM | GI50 (SK-MEL-2 melanoma): 0.00145 µM | TGI (SK-MEL-2 melanoma): > 14.3 µM | GI50 (PC-3 prostate): 0.00472 µM | TGI (PC-3 prostate): > 14.3 µM | GI50 (OVCAR-4 ovarian): 0.0326 µM | TGI (OVCAR-4 ovarian): > 14.3 µM | GI50 (COLO 205 colon): 0.00396 µM | TGI (COLO 205 colon): 0.0499 µM | GI50 (786-0 renal): 0.00868 µM | TGI (786-0 renal): > 14.3 µM | GI50 (SNB-75 CNS): 0.00528 µM | TGI (SNB-75 CNS): > 14.3 µM | GI50 (HOP-62 NSCLC): 0.00673 µM | TGI (HOP-62 NSCLC): > 14.3 µM | GI50 (HT29 colon): 0.00388 µM | TGI (HT29 colon): > 14.3 µM | GI50 (SF-539 CNS): 0.0035 µM | TGI (SF-539 CNS): 0.0265 µM | GI50 (MDA-MB-231 breast): 0.008 µM | TGI (MDA-MB-231 breast): > 14.3 µM | GI50 (OVCAR-8 ovarian): 0.0166 µM | TGI (OVCAR-8 ovarian): > 14.3 µM | GI50 (HOP-92 NSCLC): 0.00585 µM | TGI (HOP-92 NSCLC): > 6.56 µM | GI50 (CAKI-1 renal): 0.00602 µM | TGI (CAKI-1 renal): > 14.3 µM | GI50 (OVCAR-3 ovarian): < 0.00143 µM | TGI (OVCAR-3 ovarian): 0.0286 µM | GI50 (SR leukemia): 0.00183 µM | TGI (SR leukemia): > 14.3 µM | GI50 (HCT-116 colon): 0.00366 µM | TGI (HCT-116 colon): > 14.3 µM | GI50 (MDA-MB-435): < 0.00143 µM | TGI (MDA-MB-435): 0.00391 µM | GI50 (MOLT-4 leukemia): 0.0106 µM | TGI (MOLT-4 leukemia): > 14.3 µM | GI50 (HCC-2998 colon): 0.0112 µM | TGI (HCC-2998 colon): > 14.3 µM | GI50 (CCRF-CEM leukemia): 0.00383 µM | TGI (CCRF-CEM leukemia): > 14.3 µM | GI50 (OVCAR-5 ovarian): 0.0288 µM | TGI (OVCAR-5 ovarian): > 14.3 µM | GI50 (A549 NSCLC): 0.0109 µM | TGI (A549 NSCLC): > 14.3 µM | GI50 (HCT-15 colon): 0.00933 µM | TGI (HCT-15 colon): > 14.3 µM | GI50 (NCI/ADR-RES ovarian): 0.0785 µM | TGI (NCI/ADR-RES ovarian): > 14.3 µM | GI50 (RPMI-8226 leukemia): 0.00531 µM | TGI (RPMI-8226 leukemia): > 14.3 µM | GI50 (M14 melanoma): 0.00244 µM | TGI (M14 melanoma): 0.00969 µM | GI50 (NCI-H460 lung): 0.00436 µM | TGI (NCI-H460 lung): > 14.3 µM | GI50 (SN12C renal): 0.00993 µM | TGI (SN12C renal): > 14.3 µM | GI50 (ACHN renal): 0.0142 µM | TGI (ACHN renal): > 14.3 µM | GI50 (IGROV1 ovarian): 0.0145 µM | TGI (IGROV1 ovarian): > 14.3 µM | GI50 (SNB-19 CNS): 0.00568 µM | TGI (SNB-19 CNS): > 14.3 µM | GI50 (KM12 colon): 0.00192 µM | TGI (KM12 colon): > 14.3 µM | GI50 (HL-60(TB) leukemia): 0.00433 µM | TGI (HL-60(TB) leukemia): 0.019 µM | GI50 (NCI-H23 lung): 0.0073 µM | TGI (NCI-H23 lung): > 14.3 µM | GI50 (SW-620 colon): 0.00398 µM | TGI (SW-620 colon): > 14.3 µM | GI50 (UO-31 renal): 0.0741 µM | TGI (UO-31 renal): > 14.3 µM | GI50 (RXF 393 renal): 0.00391 µM | TGI (RXF 393 renal): > 14.3 µM | TGI (TK-10 renal): > 14.3 µM | GI50 (BT-549 breast): 0.00631 µM | TGI (BT-549 breast): 0.473 µM | GI50 (UACC-62 melanoma): 0.00161 µM | TGI (UACC-62 melanoma): > 14.3 µM | GI50 (MCF7 breast): < 0.00143 µM | TGI (MCF7 breast): > 14.3 µM | GI50 (UACC-257 melanoma): > 14.3 µM | TGI (UACC-257 melanoma): > 14.3 µM | GI50 (SK-OV-3 ovarian): 0.00383 µM | TGI (SK-OV-3 ovarian): > 14.3 µM | GI50 (HS 578T breast): 0.00643 µM | TGI (HS 578T breast): > 14.3 µM | GI50 (DU-145 prostate): 0.00425 µM | TGI (DU-145 prostate): > 4.64 µM | GI50 (SF-268 CNS): < 0.03 µM | TGI (SF-268 CNS): > 14.3 µM | GI50 (LOX IMVI melanoma): 0.0103 µM | TGI (LOX IMVI melanoma): > 14.3 µM
